Measurements published in PubChem BioAssay (NCI).
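These data come from cells grown in 96-well plates and exposed to compound for 48 hours at five concentrations. TGI is the concentration that stops growth completely.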

Key:
Assay in all cases: DTP human tumour cell line panel, 48 h
[1] = tested on: SW-620 colon
[2] = tested on: SK-MEL-28 melanoma
[3] = tested on: NCI-H23 lung
[4] = tested on: OVCAR-4 ovarian
[5] = tested on: HT29 colon
[6] = tested on: SN12C renal
[7] = tested on: SK-OV-3 ovarian
[8] = tested on: HOP-62 NSCLC
[9] = tested on: HCC-2998 colon
[10] = tested on: SK-MEL-2 melanoma

Row | Structure (SMILES) | TGI [1] [µM] | TGI [2] [µM] | TGI [3] [µM] | TGI [4] [µM] | TGI [5] [µM] | TGI [6] [µM] | TGI [7] [µM] | TGI [8] [µM] | TGI [9] [µM] | TGI [10] [µM]
1 | CC(C)C(Br)CCC1=CCC(Br)(Br)C1 (stereo not given) | 12.2 | 29 | 21.5 | 24.2 | 28.6 | 15.2 | 28.1 | 30.8 | 28.1 | 19.3
2 | COc1cc2ccc3c4cc(OC)c(OC)cc4c[n+](C)c3c2cc1O | > 100 | > 100 | > 100 | > 100 | > 100 | 43 | > 100 | > 100 | > 100 | > 100
3 | CCc1c(O)cc(=O)oc1-c1ccc(OC)c(OC)c1 | > 100 | > 100 | > 100 | > 100 | > 100 | > 100 | > 100 | > 100 | > 100 | > 100
4 | CC(=O)Nc1nc(Cl)cc(NCC2(CO)CCC2)n1 | > 100 | > 100 | > 100 | > 100 | > 100 | > 100 | > 100 | > 100 | > 100 | > 100
5 | Cn1c2ccccc2c2ccc3c(c21)C(=O)c1ccc2c4ccccc4n(C)c2c1C3=O | > 100 | > 100 | > 100 | > 100 | > 100 | > 100 | > 100 | > 100 | > 100 | > 100
6 | Cc1c(C)n(-c2ccccc2)c2nc(S(C)=O)nc(S(C)=O)c12 (stereo not given) | 3.86 | 14.9 | 29.5 | 17.4 | 25.1 | 24.6 | 32.4 | 36.5 | 30.3 | 10.1
7 | O=c1c2c3c(sc2[nH]c(=S)n1-c1ccccc1)CCCc1ccc([N+](=O)[O-])cc1-3 | 25.4 | > 100 | > 100 | > 100 | 61.3 | > 100 | > 100 | > 100 | 77.3 | > 100
8 | COC(=O)/C=C(/C=C1/C(C#N)=C(N)N(c2ccc(Cl)cc2)C1(C)/C(=C\C(=O)OC)C(=O)OC)C(=O)OC (stereo not given) | 30.8 | 36.2 | 40.5 | 60.5 | 39 | 37.6 | > 100 | > 100 | 39.2 | 72.2
9 | COC(=O)c1ccccc1C1CN=NC12Cc1c(ccc(C)c1C)C2=O (stereo not given) | > 100 | > 100 | > 100 | > 100 | > 100 | > 100 | > 100 | > 100 | > 100 | > 100
10 | CN(C)c1ccc(/C=C(\NC(=O)c2ccccc2)C(=O)NC(CC(=O)O)C(=O)O)cc1 (stereo not given) | > 100 | > 100 | > 100 | > 100 | > 100 | > 100 | > 100 | > 100 | > 100 | > 100
11 | COc1ccc2nc(NC(=O)/C(C#N)=C/c3ccccc3)sc2c1 | > 100 | > 100 | > 100 | > 100 | > 96.1 | > 100 | > 100 | > 100 | > 100 | > 100
12 | CN1CSC(=S)N(c2cccc(C(F)(F)F)c2)C1 | > 100 | 52 | 33.2 | 37.5 | 47.7 | > 100 | > 100 | 70 | 32.9 | 43.3
13 | Cc1ccc2cccc(-c3cccc4ccccc34)c2n1 | > 100 | > 100 | > 100 | > 100 | 76.9 | > 100 | 75.2 | 56.9 | 29.1 | 37.5
14 | O=c1oc2ccccc2c(O)c1Cc1ccc(Cc2c(O)c3ccccc3oc2=O)cc1 | > 100 | > 100 | > 100 | > 100 | > 100 | > 100 | > 100 | > 100 | > 100 | > 100
15 | C[n+]1cc2cc(O)c(O)cc2c2ccc3cc(O)c(O)cc3c21 | > 100 | > 100 | 18.3 | > 100 | 66.9 | 26 | > 53 | 10.8 | > 57.6 | 12
16 | CCOC1C=CC(=O)C(CO)O1 (stereo not given) | 29.6 | 33.3 | 27.6 | 26.5 | 25.4 | 26.8 | 33.3 | 28.4 | 34.4 | 37.1
